Test results reported in PubChem BioAssay AID1963839 (Molecular Pharmacology Branch, DTP, NCI, 2024).

Tested on: 817829-284-R-J1-PDC complex spheroid viability
Assay: Anticancer human tumor 817829-284-R-J1-PDC patient-derived colon adenocarcinoma cell line growth inhibition [POLQ]
Conditions: for IC50: curve of first compound; for viability, T/C: stronger effect = lower value
Summary of the method: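 Patient-derived tumour cells were co-cultured with HUVEC and mesenchymal stem cells as multicellular spheroids at 37 °C. They were treated with POLQ inhibitors (novobiocin, ART-558, RP6685) alone or combined with other agents. Top concentrations were at or near clinical Cmax (otherwise 10 microM; SN-38 at 1 microM), decreasing in half-log steps.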

[1] = second compound 0.0316 µM, first compound 0.0316 µM
[2] = second compound 0.0316 µM, first compound 0.1 µM
[3] = second compound 0.0316 µM, first compound 0.316 µM
[4] = second compound 0.0316 µM, first compound 1 µM
[5] = second compound 0.0316 µM, first compound 3.16 µM
[6] = second compound 0.0316 µM, first compound 10 µM
[7] = second compound 0.1 µM, first compound 0.0316 µM
[8] = second compound 0.1 µM, first compound 0.1 µM
[9] = second compound 0.1 µM, first compound 0.316 µM
[10] = second compound 0.1 µM, first compound 1 µM
[11] = second compound 0.1 µM, first compound 3.16 µM
[12] = second compound 0.1 µM, first compound 10 µM
[13] = second compound 0.316 µM, first compound 0.0316 µM
[14] = second compound 0.316 µM, first compound 0.1 µM
[15] = second compound 0.316 µM, first compound 0.316 µM
[16] = second compound 0.316 µM, first compound 1 µM
[17] = second compound 0.316 µM, first compound 3.16 µM
[18] = second compound 0.316 µM, first compound 10 µM
[19] = second compound 1 µM, first compound 0.0316 µM
[20] = second compound 1 µM, first compound 0.1 µM
[21] = second compound 1 µM, first compound 0.316 µM
[22] = second compound 1 µM, first compound 1 µM
[23] = second compound 1 µM, first compound 3.16 µM
[24] = second compound 1 µM, first compound 10 µM
[25] = second compound 3.16 µM, first compound 0.0316 µM
[26] = second compound 3.16 µM, first compound 0.1 µM
[27] = second compound 3.16 µM, first compound 0.316 µM
[28] = second compound 3.16 µM, first compound 1 µM
[29] = second compound 3.16 µM, first compound 3.16 µM
[30] = second compound 3.16 µM, first compound 10 µM
[31] = second compound 10 µM, first compound 0.0316 µM
[32] = second compound 10 µM, first compound 0.1 µM
[33] = second compound 10 µM, first compound 0.316 µM
[34] = second compound 10 µM, first compound 1 µM
[35] = second compound 10 µM, first compound 3.16 µM
[36] = second compound 10 µM, first compound 10 µM
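Also: spheroids exposed to compounds for 7 days.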
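For viability, T/C in this document: 100% = DMSO vehicle-treated spheroids.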

Nc1ccn(C2OC(CO)C(O)C2(F)F)c(=O)n1 (stereo unspecified) + COC1C(OC(N)=O)C(O)C(Oc2ccc3c(O)c(NC(=O)c4ccc(O)c(CC=C(C)C)c4)c(=O)oc3c2C)OC1(C)C
IC50 (second compound 0.0316 µM): < 0.0316 µM | IC50 (second compound 0.1 µM): < 0.0316 µM | IC50 (second compound 0.316 µM): < 0.0316 µM | IC50 (second compound 1 µM): < 0.0316 µM | IC50 (second compound 3.16 µM): < 0.0316 µM | IC50 (second compound 10 µM): < 0.0316 µM | viability, T/C [1]: 5.87% | viability, T/C [2]: 4.61% | viability, T/C [3]: 5.48% | viability, T/C [4]: 4.5% | viability, T/C [5]: 3.65% | viability, T/C [6]: 3.38% | viability, T/C [7]: 5.96% | viability, T/C [8]: 4.96% | viability, T/C [9]: 5.53% | viability, T/C [10]: 4.76% | viability, T/C [11]: 3.8% | viability, T/C [12]: 3.28% | viability, T/C [13]: 5.1% | viability, T/C [14]: 4.62% | viability, T/C [15]: 5.85% | viability, T/C [16]: 5.46% | viability, T/C [17]: 3.59% | viability, T/C [18]: 2.73% | viability, T/C [19]: 4.99% | viability, T/C [20]: 4.37% | viability, T/C [21]: 5.56% | viability, T/C [22]: 4.58% | viability, T/C [23]: 4.04% | viability, T/C [24]: 3.14% | viability, T/C [25]: 4.75% | viability, T/C [26]: 4.78% | viability, T/C [27]: 5.45% | viability, T/C [28]: 4.57% | viability, T/C [29]: 3.73% | viability, T/C [30]: 3.65% | viability, T/C [31]: 6.16% | viability, T/C [32]: 4.98% | viability, T/C [33]: 5.43% | viability, T/C [34]: 5.17% | viability, T/C [35]: 4.49% | viability, T/C [36]: 3.17%

O=C(c1cc(Cc2n[nH]c(=O)c3ccccc23)ccc1F)N1CCN(C(=O)C2CC2)CC1 + Cc1cccc(N(C)C(=O)C2C(O)CCN2c2nc(C)cc(C(F)(F)F)c2C#N)c1
IC50 (second compound 0.0316 µM): 4.01 µM | IC50 (second compound 0.1 µM): 1.86 µM | IC50 (second compound 0.316 µM): 2.63 µM | IC50 (second compound 1 µM): 2.91 µM | IC50 (second compound 3.16 µM): 3.65 µM | IC50 (second compound 10 µM): 4.54 µM | viability, T/C [1]: 75.4% | viability, T/C [2]: 97.7% | viability, T/C [3]: 89.7% | viability, T/C [4]: 69.4% | viability, T/C [5]: 59.6% | viability, T/C [6]: 21.8% | viability, T/C [7]: 84.1% | viability, T/C [8]: 75.5% | viability, T/C [9]: 93.3% | viability, T/C [10]: 60.7% | viability, T/C [11]: 42.4% | viability, T/C [12]: 28.9% | viability, T/C [13]: 119% | viability, T/C [14]: 61.2% | viability, T/C [15]: 78.2% | viability, T/C [16]: 82.7% | viability, T/C [17]: 44.5% | viability, T/C [18]: 26.3% | viability, T/C [19]: 104% | viability, T/C [20]: 100% | viability, T/C [21]: 74.2% | viability, T/C [22]: 66.4% | viability, T/C [23]: 54.2% | viability, T/C [24]: 26.6% | viability, T/C [25]: 108% | viability, T/C [26]: 111% | viability, T/C [27]: 81.6% | viability, T/C [28]: 64.4% | viability, T/C [29]: 60.3% | viability, T/C [30]: 30.2% | viability, T/C [31]: 115% | viability, T/C [32]: 87.6% | viability, T/C [33]: 104% | viability, T/C [34]: 76.2% | viability, T/C [35]: 64.6% | viability, T/C [36]: 25.2%

CC(C)n1c(=O)n(C)c2cnc3cc(F)c(-c4ccc(OCCCN5CCCCC5)nc4)cc3c21 + Nc1ccc(C#CCN(C(=O)Cc2ncc(C(F)(F)F)cc2C(F)(F)F)c2ccc(F)cc2)nn1
IC50 (second compound 0.0316 µM): > 10 µM | IC50 (second compound 0.1 µM): 7.8 µM | IC50 (second compound 0.316 µM): 8.1 µM | IC50 (second compound 1 µM): 6.5 µM | IC50 (second compound 3.16 µM): 9.72 µM | IC50 (second compound 10 µM): 7.91 µM | viability, T/C [1]: 84.8% | viability, T/C [2]: 92.4% | viability, T/C [3]: 79.6% | viability, T/C [4]: 95.8% | viability, T/C [5]: 85.7% | viability, T/C [6]: 60.4% | viability, T/C [7]: 85.2% | viability, T/C [8]: 77.2% | viability, T/C [9]: 94.5% | viability, T/C [10]: 88.9% | viability, T/C [11]: 84.8% | viability, T/C [12]: 40.4% | viability, T/C [13]: 96.1% | viability, T/C [14]: 95% | viability, T/C [15]: 110% | viability, T/C [16]: 83.1% | viability, T/C [17]: 81.3% | viability, T/C [18]: 43.3% | viability, T/C [19]: 95% | viability, T/C [20]: 89.1% | viability, T/C [21]: 103% | viability, T/C [22]: 87.7% | viability, T/C [23]: 76% | viability, T/C [24]: 34.7% | viability, T/C [25]: 81.8% | viability, T/C [26]: 86.2% | viability, T/C [27]: 105% | viability, T/C [28]: 94.5% | viability, T/C [29]: 92.8% | viability, T/C [30]: 48.9% | viability, T/C [31]: 81.7% | viability, T/C [32]: 96% | viability, T/C [33]: 106% | viability, T/C [34]: 76.3% | viability, T/C [35]: 82.2% | viability, T/C [36]: 42%
